Key:
Assay type in all cases: in vivo
rice plant = assay: Test Example 5: effect on crop by foliage application, plastic box (symbol b); conditions: 320 g/ha, 3 weeks after application
Text: (§1) Herbicidal Effect Test by Foliage Application
(§2) Sterilized diluvial soil was placed in a plastic box having a length of 21 cm, a width of 13 cm, and a depth of 7 cm. Each of the seeds of Digitaria ciliaris, Setaria viridis, Echinochloa crus-galli var. crus-galli, Avena fatua, Alopecurus myosuroides, Lolium multiflorum Lam., Apera spica-venti, Abutilon theophrasti, Amaranthus retroflexus, Chenopodium album, Stellaria media, Galium spurium, Veronica persica, corn, soybean, rice plant, wheat, beet, and rapeseed was sowed in a spot-like manner and was covered with the soil of a thickness of about 1.5 cm. Thereafter, the plants were grown in the greenhouse of 25° C. to 30° C.

Lolium multiflorum Lam. = assay: Test Example 5: herbicidal effect by foliage application, plastic box (symbol K); conditions: 320 g/ha, 3 weeks after application
Text: as §1
as §2, with “30° C. After the plants were grown for 14 days, the emulsion agent of the compound of the present invention prepared in accordance with Formulation Example 2 was diluted with water so as to be a predetermined herbicide amount and the diluted emulsion agent was uniformly applied to a foliage part with a small-size spray. 3 weeks later from the herbicide application, the effect to each plant was investigated in accordance with the criteria of Test Example 1.” for “30° C.”

Galium spurium = assay: Test Example 5: herbicidal effect by foliage application, plastic box (symbol Q); conditions: 320 g/ha, 3 weeks after application
Text: as §1
as §2, with “30° C. After the plants were grown for 14 days, the emulsion agent of the compound of the present invention prepared in accordance with Formulation Example 2 was diluted with water so as to be a predetermined herbicide amount and the diluted emulsion agent was uniformly applied to a foliage part with a small-size spray. 3 weeks later from the herbicide application, the effect to each plant was investigated in accordance with the criteria of Test Example 1.” for “30° C.”

Amaranthus retroflexus = assay: Test Example 5: herbicidal effect by foliage application, plastic box (symbol N); conditions: 320 g/ha, 3 weeks after application
Text: as §1
as §2, with “30° C. After the plants were grown for 14 days, the emulsion agent of the compound of the present invention prepared in accordance with Formulation Example 2 was diluted with water so as to be a predetermined herbicide amount and the diluted emulsion agent was uniformly applied to a foliage part with a small-size spray. 3 weeks later from the herbicide application, the effect to each plant was investigated in accordance with the criteria of Test Example 1.” for “30° C.”

Veronica persica = assay: Test Example 5: herbicidal effect by foliage application, plastic box (symbol R); conditions: 320 g/ha, 3 weeks after application
Text: as §1
as §2, with “30° C. After the plants were grown for 14 days, the emulsion agent of the compound of the present invention prepared in accordance with Formulation Example 2 was diluted with water so as to be a predetermined herbicide amount and the diluted emulsion agent was uniformly applied to a foliage part with a small-size spray. 3 weeks later from the herbicide application, the effect to each plant was investigated in accordance with the criteria of Test Example 1.” for “30° C.”

Digitaria ciliaris = assay: Test Example 5: herbicidal effect by foliage application, plastic box (symbol F); conditions: 320 g/ha, 3 weeks after application
Text: as §1
as §2, with “30° C. After the plants were grown for 14 days, the emulsion agent of the compound of the present invention prepared in accordance with Formulation Example 2 was diluted with water so as to be a predetermined herbicide amount and the diluted emulsion agent was uniformly applied to a foliage part with a small-size spray. 3 weeks later from the herbicide application, the effect to each plant was investigated in accordance with the criteria of Test Example 1.” for “30° C.”

soybean = assay: Test Example 5: effect on crop by foliage application, plastic box (symbol d); conditions: 320 g/ha, 3 weeks after application
Text: as §1, §2

[1] = system: directly sowed rice plant; assay: Test Example 3: effect on crop by foliage application, Wagner pot (symbol b); conditions: application herbicide amount 320 g/ha, Table 24
Method: as §1
After alluvial soil was placed into 1/10000 are of Wagner pot, water was poured and mixed to form a submerged condition having a water depth of 0.1 cm to 0.5 cm. Seeds of Echinochloa crus-galli var. crus-galli, Leptochloa chinensis, Cyperus difformis, and rice were sowed and the pot was placed in the greenhouse of 25° C. to 30° C. to grow the plants.

Cyperus difformis = assay: Test Example 3: herbicidal effect by foliage application, Wagner pot (symbol E); conditions: application herbicide amount 320 g/ha, Table 24
Method: as §1
(§3) After alluvial soil was placed into 1/10000 are of Wagner pot, water was poured and mixed to form a submerged condition having a water depth of 0.1 cm to 0.5 cm. Seeds of Echinochloa crus-galli var. crus-galli, Leptochloa chinensis, Cyperus difformis, and rice were sowed and the pot was placed in the greenhouse of 25° C. to 30° C. to grow the plants. After the plants were grown for 14 days, the emulsion agent of the compound of the present invention prepared in accordance with Formulation Example 2 was diluted with water so as to be a predetermined herbicide amount and the diluted emulsion agent was uniformly applied to a foliage part with a small-size spray. 3 weeks later from the herbicide application, the effect to each plant was investigated in accordance with the criteria of Test Example 1.

rapeseed = assay: Test Example 5: effect on crop by foliage application, plastic box (symbol g); conditions: 320 g/ha, 3 weeks after application
Text: as §1, §2

Avena fatua = assay: Test Example 5: herbicidal effect by foliage application, plastic box (symbol I); conditions: 320 g/ha, 3 weeks after application
Text: as §1
as §2, with “30° C. After the plants were grown for 14 days, the emulsion agent of the compound of the present invention prepared in accordance with Formulation Example 2 was diluted with water so as to be a predetermined herbicide amount and the diluted emulsion agent was uniformly applied to a foliage part with a small-size spray. 3 weeks later from the herbicide application, the effect to each plant was investigated in accordance with the criteria of Test Example 1.” for “30° C.”

Stellaria media = assay: Test Example 5: herbicidal effect by foliage application, plastic box (symbol P); conditions: 320 g/ha, 3 weeks after application
Text: as §1
as §2, with “30° C. After the plants were grown for 14 days, the emulsion agent of the compound of the present invention prepared in accordance with Formulation Example 2 was diluted with water so as to be a predetermined herbicide amount and the diluted emulsion agent was uniformly applied to a foliage part with a small-size spray. 3 weeks later from the herbicide application, the effect to each plant was investigated in accordance with the criteria of Test Example 1.” for “30° C.”

[2] = system: Echinochloa crus-galli var. crus-galli; assay: Test Example 3: herbicidal effect by foliage application, Wagner pot (symbol H); conditions: application herbicide amount 320 g/ha, Table 24
Method: as §1, §3

Chenopodium album = assay: Test Example 5: herbicidal effect by foliage application, plastic box (symbol O); conditions: 320 g/ha, 3 weeks after application
Text: as §1
as §2, with “30° C. After the plants were grown for 14 days, the emulsion agent of the compound of the present invention prepared in accordance with Formulation Example 2 was diluted with water so as to be a predetermined herbicide amount and the diluted emulsion agent was uniformly applied to a foliage part with a small-size spray. 3 weeks later from the herbicide application, the effect to each plant was investigated in accordance with the criteria of Test Example 1.” for “30° C.”

Leptochloa chinensis = assay: Test Example 3: herbicidal effect by foliage application, Wagner pot (symbol D); conditions: application herbicide amount 320 g/ha, Table 24
Method: as §1, §3

beet = assay: Test Example 5: effect on crop by foliage application, plastic box (symbol f); conditions: 320 g/ha, 3 weeks after application
Text: as §1, §2

Abutilon theophrasti = assay: Test Example 5: herbicidal effect by foliage application, plastic box (symbol M); conditions: 320 g/ha, 3 weeks after application
Text: as §1
as §2, with “30° C. After the plants were grown for 14 days, the emulsion agent of the compound of the present invention prepared in accordance with Formulation Example 2 was diluted with water so as to be a predetermined herbicide amount and the diluted emulsion agent was uniformly applied to a foliage part with a small-size spray. 3 weeks later from the herbicide application, the effect to each plant was investigated in accordance with the criteria of Test Example 1.” for “30° C.”

Setaria viridis = assay: Test Example 5: herbicidal effect by foliage application, plastic box (symbol G); conditions: 320 g/ha, 3 weeks after application
Text: as §1
as §2, with “30° C. After the plants were grown for 14 days, the emulsion agent of the compound of the present invention prepared in accordance with Formulation Example 2 was diluted with water so as to be a predetermined herbicide amount and the diluted emulsion agent was uniformly applied to a foliage part with a small-size spray. 3 weeks later from the herbicide application, the effect to each plant was investigated in accordance with the criteria of Test Example 1.” for “30° C.”

[3] = system: Echinochloa crus-galli var. crus-galli; assay: Test Example 5: herbicidal effect by foliage application, plastic box (symbol H); conditions: 320 g/ha, 3 weeks after application
Text: as §1
as §2, with “30° C. After the plants were grown for 14 days, the emulsion agent of the compound of the present invention prepared in accordance with Formulation Example 2 was diluted with water so as to be a predetermined herbicide amount and the diluted emulsion agent was uniformly applied to a foliage part with a small-size spray. 3 weeks later from the herbicide application, the effect to each plant was investigated in accordance with the criteria of Test Example 1.” for “30° C.”

Alopecurus myosuroides = assay: Test Example 5: herbicidal effect by foliage application, plastic box (symbol J); conditions: 320 g/ha, 3 weeks after application
Text: as §1
as §2, with “30° C. After the plants were grown for 14 days, the emulsion agent of the compound of the present invention prepared in accordance with Formulation Example 2 was diluted with water so as to be a predetermined herbicide amount and the diluted emulsion agent was uniformly applied to a foliage part with a small-size spray. 3 weeks later from the herbicide application, the effect to each plant was investigated in accordance with the criteria of Test Example 1.” for “30° C.”

corn = assay: Test Example 5: effect on crop by foliage application, plastic box (symbol c); conditions: 320 g/ha, 3 weeks after application
Text: as §1, §2

wheat = assay: Test Example 5: effect on crop by foliage application, plastic box (symbol e); conditions: 320 g/ha, 3 weeks after application
Text: as §1, §2

Apera spica-venti = assay: Test Example 5: herbicidal effect by foliage application, plastic box (symbol L); conditions: 320 g/ha, 3 weeks after application
Text: as §1
as §2, with “30° C. After the plants were grown for 14 days, the emulsion agent of the compound of the present invention prepared in accordance with Formulation Example 2 was diluted with water so as to be a predetermined herbicide amount and the diluted emulsion agent was uniformly applied to a foliage part with a small-size spray. 3 weeks later from the herbicide application, the effect to each plant was investigated in accordance with the criteria of Test Example 1.” for “30° C.”

Structure (SMILES): CCOC(=O)C(C(=O)C(C)C)C1CC(O)=C(c2c(C)cc(Br)cc2C)C1=O (mixture of isomers) [10-001]
- b: directly sowed rice plant, effect on crop grade (rice plant): 2 (Herbicidal ratio of 20% or higher and lower than 40%)
- K: Lolium multiflorum Lam., herbicidal effect grade (Lolium multiflorum Lam.): 3 (Herbicidal ratio of 40% or higher and lower than 70%)
- Q: Galium spurium, herbicidal effect grade (Galium spurium): 0 (Herbicidal ratio of 5% or lower (almost no effect))
- N: Amaranthus retroflexus, herbicidal effect grade (Amaranthus retroflexus): 0 (Herbicidal ratio of 5% or lower (almost no effect))
- R: Veronica persica, herbicidal effect grade (Veronica persica): 0 (Herbicidal ratio of 5% or lower (almost no effect))
- F: Digitaria ciliaris, herbicidal effect grade (Digitaria ciliaris): 3 (Herbicidal ratio of 40% or higher and lower than 70%)
- d: soybean, effect on crop grade (soybean): 0 (Herbicidal ratio of 5% or lower (almost no effect))
- b (directly sowed rice plant) effect on crop grade [1]: 3 (Herbicidal ratio of 40% or higher and lower than 70%)
- E herbicidal effect grade (Cyperus difformis): 0 (Herbicidal ratio of 5% or lower (almost no effect))
- g: rapeseed, effect on crop grade (rapeseed): 0 (Herbicidal ratio of 5% or lower (almost no effect))
- I: Avena fatua, herbicidal effect grade (Avena fatua): 1 (Herbicidal ratio of 5% or higher and lower than 20%)
- P: Stellaria media, herbicidal effect grade (Stellaria media): 0 (Herbicidal ratio of 5% or lower (almost no effect))
- H (Echinochloa crus-galli var. crus-galli) herbicidal effect grade [2]: 5 (Herbicidal ratio of 90% or more (almost completely withered))
- O: Chenopodium album, herbicidal effect grade (Chenopodium album): 0 (Herbicidal ratio of 5% or lower (almost no effect))
- D (Leptochloa chinensis) herbicidal effect grade (Leptochloa chinensis): 4 (Herbicidal ratio of 70% or higher and lower than 90%)
- f: beet, effect on crop grade (beet): 0 (Herbicidal ratio of 5% or lower (almost no effect))
- M: Abutilon theophrasti, herbicidal effect grade (Abutilon theophrasti): 0 (Herbicidal ratio of 5% or lower (almost no effect))
- G: Setaria viridis, herbicidal effect grade (Setaria viridis): 2 (Herbicidal ratio of 20% or higher and lower than 40%)
- H: Echinochloa crus-galli var. crus-galli, herbicidal effect grade [3]: 4 (Herbicidal ratio of 70% or higher and lower than 90%)
- J: Alopecurus myosuroides, herbicidal effect grade (Alopecurus myosuroides): 1 (Herbicidal ratio of 5% or higher and lower than 20%)
- c: corn, effect on crop grade (corn): 1 (Herbicidal ratio of 5% or higher and lower than 20%)
- e: wheat, effect on crop grade (wheat): 0 (Herbicidal ratio of 5% or lower (almost no effect))
- L: Apera spica-venti, herbicidal effect grade (Apera spica-venti): 0 (Herbicidal ratio of 5% or lower (almost no effect))
